Results on four substances are retold here after patent US20080038349A1, “Peptide-Pna Chimera Targeting Inducible Nitric Oxide Synthetase” (priority 2004, published 2008).

In one data set the test system is macrophags iNOS. The settings on record: in vitro, macrophages; cited from earlier work.
A further data set deals with Multiple Sclerosis Model. As to the kind of experiment: Multiple sclerosis model (MOG 35-55 inoculated mice). The settings on record: 10 mg/kg for 10 consecutive days. Format: in vivo. How it is done:
Mice (female, Cpb 57B1/6; Harlan) were inoculated with ecephalitogenic peptide (MOG 35-55; synthesized at the Hebrew university) emulsified with CFA and pertussis toxin (Sigma) and in the same time were treated with CH(K)6HC-O-5′CTTTCTCCTTTTCC3′-O-HAIYPRH (KBP-11; 10 mg/kg; n=3) or with vehicle solution (control group; n=4) for 10 consecutive days, starting a day after the inoculation of MOG.
At the end the experiment (day 30) animals were scarified and brain tissue were send to histological (H&E analysis) and immunohistochemical (iNOS expression) analysis.

Data set [1] relates to Sense 5′-3′: GAA AGA GGA AAA GG. As to the kind of experiment: Hybridization experiments (Tm from UV melting curves). Format: binding. Conditions: for Tm (temperature of melting, hybridization): vs sense DNA, duplex 5 μM, 10 mM phosphate buffer, 100 mM NaCl, 0.1 mM EDTA, pH=7. As for the experimental part:
The DNA sequences used in the hybridization experiments were purchased from (Sigma; USA). A PNA sequence was purchased from Bio-Synthesis Inc. (Lewisville, USA). All hybrid samples reported were first incubated at 90° C. for 5 minutes, then slowly cooled at room temperature. The Duplex concentration of the various samples was 5 μM. All hybridization experiments were carried out in a 10 mM phosphate buffer, 100 mM NaCl, 0.1 mM EDTA, pH=7. Temperature was monitored by an internal thermocouple, at an accuracy of ±0.3° C. Melting curves were recorded by heating the samples (1° C./min) with a 2-min. hold time by UV signal at 260 nm. Melting temperatures were taken as the maximum of the first derivative of the melting curves. UV absorbance measurements were performed on a Varian Cart 5E UV-VIS-NIR spectrophotometer equipped with a Cary temperature controller, in 1-cm quartz cells.
The modifications on the PNA chain although improving bioavailability can diminish activity (hybridization). To examine the effect of modifications on activity properties an experiment was conducted to examine the hybridization properties (determined by changes in temperature of melting or Tm) KBP-10 sequence. Tm value (39.5° C.) was almost the same as predicted calculated value based on sequence (40° C.).

Another data set relates to cells in culture. Conditions: cited from earlier work.
Where [2] appears, read: starting a day after MOG inoculation, n=3.

{Gly} = glycine residue at the PNA end written 3'; {Lys} = lysine residue at the PNA end written 5'

Take “3′-Gly-CTTTCTCCTTTTCC-Lys 5′ (all peptide nucleic acid (PNA), 5' {Lys}, 3' {Gly}) [PNA targeting macrophage iNOS]”: the iNOS expression entry in the data set with macrophags iNOS was “specifically diminished its expression”.

“CH(K)6HC-O-5′CTTTCTCCTTTTCC3′-O-HAIYPRH [KBP-11]”: in the data set on Multiple Sclerosis Model (setting [2]), the Incidence is recorded as 1/3 and the “Mean disease duration” value was 6 days. For the same substance, in the data set on Multiple Sclerosis Model (clinical score 0-6), the “Mean Score (Disease burden)” value amounted to 0.4 ± 0.16. In data set [1] (modified PNA vs. ODN, FIG. 1), the “Effect of peptide modification on hybridization properties” value is “did not affect the hybridization properties”. Also, in data set [1], the “Tm (temperature of melting, hybridization)” value stood at 39.00 °C.

CHK6HC: the “Transfection of cells in culture” value in the data set on cells in culture is on record as “improved transfection of cells in culture”.

Take “CTTTCTCCTTTTCC (chemistry not given here) [Oligodeoxynucleotide, reference compound]”: in data set [1], the “Tm (temperature of melting, hybridization)” value was found to be 46.96 °C.
